Data: US6750348B1, “Chemokine receptor binding heterocyclic compounds” (AnorMED, Inc., priority 1999, dated 2004)

System: HIV-1 NL4.3 or IIIB
Assay: Inhibition of HIV-1 (NL4.3 or IIIB) replication in MT-4 cells (MTT)
Assay type: cell-based
Conditions: Human immunodeficiency virus 1, IIIB, MT4, read-out: EC50, inhibition of HIV-1 NL4.3 or IIIB replication
Experimental: Compounds were tested for their ability to inhibit HIV-1 replication in MT-4 cells or PBMC's (peripheral blood mononucleocytes) using published procedures (for example, see: Labrosse et al. J. Virol. 1998, 6381-6388; Simmons et al. J. Virol. 1998, 8453-8457; Donzella et al. Nature Medicine 1998, 72-77; Schols et al. J. Exp. Med. 1997, 1383-1388; De Clercq et al. Antiviral Res. 1997, 147-156; and Bridger et al. U.S. patent application Ser. No. 09/111,895). In addition to the above references, experimental methods for performing anti-viral assays can also be found in: Bridger et al. J. Med. Chem. 1995, 38, 366-378; Bridger et al. J. Med. Chem. 1996, 39, 109-119; Bridger et al. U.S. Pat. No. 5,698,546; Bridger et al. U.S. Pat. No. 5,583,131; Bridger et al. U.S. Pat. No. 5,817,807; De Clercq et al. Antimicrob. Agents and Chemother. 1994, 38, 668-674.
1. The HIV-1 strains NL4.3 and IIIB are T-tropic strains that exclusively use CXCR4 as the co-receptor for entry into cells. MT-4 Cells express CXCR4 but not CCR5.
Inhibition of HIV-1 NL4.3 (or IIIB) replication assays were performed as previously described (Bridger et al. J. Med. Chem. 1999, 42, 3971-3981; De Clercq et al. Proc. Natl. Acad. Sci, 1992, 89, 5286-5290; De Clercq et al. Antimicrob. Agents Chemother. 1994, 38, 668-674; Bridger et al. J. Med. Chem. 1995, 38, 366-378). Anti-HIV activity and cytotoxicity measurements were carried out in parallel. They were based on the viability of MT-4 cells that had been infected with HIV in the presence of various concentrations of the test compounds. After the MT-4 cells were allowed to proliferate for 5 days, the number of viable cells was quantified by a tetrazolium-based calorimetric 3-(4,5-dimethylthiazol-2-yl)-2,5-diphenyltetrazolium bromide (MTT) procedure in 96-well microtrays. In all of these assays, viral input (viral multiplicity of infection, MOI) was 0.01, or 100 times the 50% cell culture infective dose (CCID50). The EC50 was defined as the concentration required to protect 50% of the virus-infected cells against viral cytopathicity.

Structure (SMILES)	EC50 [µg/mL]
c1ccc(CNCc2ccc(CNC3CCCCc4cccnc43)cc2)nc1 (stereo not shown) [Example 1, N-(2-pyridinylmethyl)-N′-(6,7,8,9-tetrahydro-5H-cyclohepta[b]pyridin-9-yl)-1,4-benzenedimethanamine]	< 20
c1ccc(CNCc2ccc(CNC3CCCc4cccnc43)cc2)nc1 (stereo not shown) [Example 2, N-(2-pyridinylmethyl)-N′-(5,6,7,8-tetrahydro-8-quinolinyl)-1,4-benzenedimethanamine]	< 20
c1ccc(CNCc2ccc(CNC3CCc4cccnc43)cc2)nc1 (stereo not shown) [Example 3, N-(2-pyridinylmethyl)-N′-(6,7-dihydro-5H-cyclopenta[b]pyridin-7-yl)-1,4-benzenedimethanamine]	< 20
c1ccc(CNCc2ccc(CNC3CCCc4ccccc43)cc2)nc1 (stereo not shown) [Example 4, N-(2-pyridinylmethyl)-N′-(1,2,3,4-tetrahydro-1-naphthalenyl)-1,4-benzenedimethanamine]	< 20
O=C(NCCN(Cc1ccc(CNCc2ccccn2)cc1)C1CCCc2cccnc21)c1ccc2ccccc2c1 (stereo not shown) [Example 19, N-(2-pyridinylmethyl)-N′-(2-(2-naphthoyl)aminoethyl)-N′-(5,6,7,8-tetrahydro-8-quinolinyl)-1,4-benzenedimethanamine]	< 20
c1ccc(CNCc2ccc(CN(Cc3nc4ccccc4[nH]3)C3CCCc4cccnc43)cc2)nc1 (stereo not shown) [Example 61, N-(2-pyridinylmethyl)-N′-(1H-benzimidazol-2-ylmethyl)-N′-(5,6,7,8-tetrahydro-8-quinolinyl)-1,4-benzenedimethanamine]	< 20
c1ccc(CCN(Cc2ccc(CNCc3ccccn3)cc2)C2CCCc3cccnc32)cc1 (stereo not shown) [Example 69, N-(2-pyridinylmethyl)-N′-(2-phenylethyl)-N′-(5,6,7,8-tetrahydro-8-quinolinyl)-1,4-benzenedimethanamine]	< 20
c1ccc(CCCN(Cc2ccc(CNCc3ccccn3)cc2)C2CCCc3cccnc32)cc1 (stereo not shown) [Example 70, N-(2-pyridinylmethyl)-N′-(3-phenylpropyl)-N′-(5,6,7,8-tetrahydro-8-quinolinyl)-1,4-benzenedimethanamine]	< 20

Same assay, conditions: Human immunodeficiency virus 1, IIIB, MT4, read-out: EC50, inhibition of HIV-1 NLA.3 or IIIB replication

Structure (SMILES)	EC50 [µM]
COc1cccc(CN(Cc2ccc(CNCc3ccccn3)cc2)C2CCCc3cccnc32)c1OC (stereo not shown) [Example 95, N-[(2,3-dimethoxyphenyl)methyl]-N′-(2-pyridinylmethyl)-N-(5,6,7,8-tetrahydro-8-quinolinyl)-1,4-benzenedimethanamine]	< 20
N#Cc1ccc(CN(Cc2ccc(CNCc3ccccn3)cc2)C2CCCc3cccnc32)cc1 (stereo not shown) [Example 101, N-[(4-cyanophenyl)methyl]-N′-(2-pyridinylmethyl)-N-(5,6,7,8-tetrahydro-8-quinolinyl)-1,4-benzenedimethanamine]	< 20
CC(=O)Nc1ccc(CN(Cc2ccc(CNCc3ccccn3)cc2)C2CCCc3cccnc32)cc1 (stereo not shown) [Example 102, N-[(4-acetamidophenyl)methyl]-N′-(2-pyridinylmethyl)-N-(5,6,7,8-tetrahydro-8-quinolinyl)-1,4-benzenedimethanamine]	< 20
c1ccc(Oc2ccc(CN(Cc3ccc(CNCc4ccccn4)cc3)C3CCCCc4cccnc43)cc2)cc1 (stereo not shown) [Example 103, N-[(4-phenoxyphenyl)methyl]-N′-(2-pyridinylmethyl)-N-(6,7,8,9-tetrahydro-5H-cyclohepta[b]pyridin-9-yl)-1,4-benzenedimethanamine]	< 20
c1ccc(COc2ccc(CN(Cc3ccc(CNCc4ccccn4)cc3)C3CCCCc4cccnc43)cc2)cc1 (stereo not shown) [Example 105, N-[(4-benzyloxyphenyl)methyl]-N′-(2-pyridinylmethyl)-N-(6,7,8,9-tetrahydro-5H-cyclohepta[b]pyridin-9-yl)-1,4-benzenedimethanamine]	< 20
c1ccc(CNCc2ccc(CN(Cc3ccc4c(c3)OCO4)C3CCCc4cccnc43)cc2)nc1 (stereo not shown) [Example 112, N-[(3,4-methylenedioxyphenyl)methyl]-N′-(2-pyridinylmethyl)-N-(5,6,7,8-tetrahydro-8-quinolinyl)-1,4-benzenedimethanamine]	< 20
c1ccc(CNCc2ccc(CN(Cc3cccnc3)C3CCCCc4cccnc43)cc2)nc1 (stereo not shown) [Example 113, N-(3-pyridinylmethyl)-N′-(2-pyridinylmethyl)-N-(6,7,8,9-tetrahydro-5H-cyclohepta[b]pyridin-9-yl)-1,4-benzenedimethanamine]	< 20
CCCOc1ccc(CN(Cc2ccc(CNCc3ccccn3)cc2)C2CCCCc3cccnc32)cc1 (stereo not shown) [Example 116, N-[(4-propoxyphenyl)methyl]-N′-(2-pyridinylmethyl)-N-(6,7,8,9-tetrahydro-5H-cyclohepta[b]pyridin-9-yl)-1,4-benzenedimethanamine]	< 20
COc1cc(CN(Cc2ccc(CNCc3ccccn3)cc2)C2CCCCc3cccnc32)cc2c1OCO2 (stereo not shown) [Example 119, N-[(3-methoxy-4,5-methylenedioxyphenyl)methyl]-N′-(2-pyridinylmethyl)-N-(6,7,8,9-tetrahydro-5H-cyclohepta[b]pyridin-9-yl)-1,4-benzenedimethanamine]	< 20
N#Cc1cccc(CN(Cc2ccc(CNCc3ccccn3)cc2)C2CCCc3cccnc32)c1 (stereo not shown) [Example 121, N-[(3-cyanophenyl)methyl]-N′-(2-pyridinylmethyl)-N-(5,6,7,8-tetrahydro-8-quinolinyl)-1,4-benzenedimethanamine]	< 20
CCc1ccc(CN(Cc2ccc(CNCc3ccccn3)cc2)C2CCCc3cccnc32)s1 (stereo not shown) [Example 123, N-(5-ethylthiophene-2-ylmethyl)-N′-(2-pyridinylmethyl)-N-(5,6,7,8-tetrahydro-8-quinolinyl)-1,4-benzenedimethanamine]	< 20
Fc1cccc(F)c1CN(Cc1ccc(CNCc2ccccn2)cc1)C1CCCCc2cccnc21 (stereo not shown) [Example 124, N-[(2,6-difluorophenyl)methyl]-N′-(2-pyridinylmethyl)-N-(6,7,8,9-tetrahydro-5H-cyclohepta[b]pyridin-9-yl)-1,4-benzenedimethanamine]	< 20
Fc1cccc(F)c1CN(Cc1ccc(CNCc2ccccn2)cc1)C1CCCc2cccnc21 (stereo not shown) [Example 125, N-[(2,6-difluorophenyl)methyl]-N′-(2-pyridinylmethyl)-N-(5,6,7,8-tetrahydro-8-quinolinyl)-1,4-benzenedimethanamine]	< 20
FC(F)Oc1ccccc1CN(Cc1ccc(CNCc2ccccn2)cc1)C1CCCCc2cccnc21 (stereo not shown) [Example 126, N-[(2-difluoromethoxyphenyl)methyl]-N′-(2-pyridinylmethyl)-N-(6,7,8,9-tetrahydro-5H-cyclohepta[b]pyridin-9-yl)-1,4-benzenedimethanamine]	< 20
Fc1ccc(CN(Cc2ccc(CNCc3ccccn3)cc2)C2CCCc3cccnc32)c(F)c1 (stereo not shown) [Example 137, N-[(2,4-difluorophenyl)methyl]-N′-(2-pyridinylmethyl)-N-(5,6,7,8-tetrahydro-8-quinolinyl)-1,4-benzenedimethanamine]	< 20
Cn1cccc1CN(Cc1ccc(CNCc2ccccn2)cc1)C1CCCc2cccnc21 (stereo not shown) [Example 138, N-(1-methylpyrrol-2-ylmethyl)-N′-(2-pyridinylmethyl)-N-(5,6,7,8-tetrahydro-8-quinolinyl)-1,4-benzenedimethanamine]	< 20
Oc1ccccc1CN(Cc1ccc(CNCc2ccccn2)cc1)C1CCCc2cccnc21 (stereo not shown) [Example 139, N-[(2-hydroxyphenyl)methyl]-N′-(2-pyridinylmethyl)-N-(5,6,7,8-tetrahydro-8-quinolinyl)-1,4-benzenedimethanamine]	< 20
COc1cc(CN(Cc2ccc(CNCc3ccccn3)cc2)C2CCCc3cccnc32)cc2c1OCO2 (stereo not shown) [Example 140, N-[(3-methoxy-4,5-methylenedioxyphenyl)methyl]-N′-(2-pyridinylmethyl)-N-(5,6,7,8-tetrahydro-8-quinolinyl)-1,4-benzenedimethanamine]	< 20
c1ccc(CNCc2ccc(CN(Cc3cccnc3)C3CCCc4cccnc43)cc2)nc1 (stereo not shown) [Example 141, N-(3-pyridinylmethyl)-N′-(2-pyridinylmethyl)-N-(5,6,7,8-tetrahydro-8-quinolinyl)-1,4-benzenedimethanamine]	< 20
Cn1c(CN(Cc2ccc(CNCc3ccccn3)cc2)C2CCCc3cccnc32)nc2ccccc21 (stereo not shown) [Example 144, N-(1-methylbenzimidazol-2-ylmethyl)-N′-(2-pyridinylmethyl)-N-(5,6,7,8-tetrahydro-8-quinolinyl)-1,4-benzenedimethanamine]	< 20
